System: gut microbiome
Test: gut microbiome 16S rRNA sequencing of stool of infected, treated mice
Conditions: for Enterococcaceae change in percent relative abundance: 100 mg/kg
[1] = oral 100 mg/kg every 12 hours for 5 days

SMILES: CC1(C)S[C@@H]2[C@H](NC(=O)[C@H](N)c3ccc(O)cc3)C(=O)N2[C@H]1C(=O)O [Amox, amoxicillin]
- Francisellaceae change in percent relative abundance (IP 100 mg/kg every 12 hours for 5 days): 0.001%
- Aerococcaceae change in percent relative abundance [1]: 0.000%
- Anaerolineaceae change in percent relative abundance [1]: 0.000%
- Anaeroplasmataceae change in percent relative abundance [1]: −0.048%
- Anaplasmataceae change in percent relative abundance [1]: 0.000%
- Aspergillaceae change in percent relative abundance [1]: 0.000%
- Asteraceae change in percent relative abundance [1]: 0.003%
- Bacillaceae change in percent relative abundance [1]: 0.002%
- Bacillales change in percent relative abundance [1]: −0.100%
- Bacteroidaceae change in percent relative abundance [1]: −8.426%
- Bifidobacteriaceae change in percent relative abundance [1]: −0.124%
- Brucellaceae change in percent relative abundance [1]: 0.001%
- Camobacteriaceae change in percent relative abundance [1]: −0.002%
- Chitinophagaceae change in percent relative abundance [1]: 0.000%
- Christensenellaceae change in percent relative abundance [1]: 0.000%
- Clostridiaceae change in percent relative abundance [1]: −6.891%
- Clostridiales change in percent relative abundance [1]: −0.099%
- Clostridiales family xi. incertae sedis change in percent relative abundance [1]: −0.027%
- Clostridiales family xiii. incertae sedis change in percent relative abundance [1]: −0.011%
- Coriobacteriaceae change in percent relative abundance [1]: −0.019%
- Corynebacteriaceae change in percent relative abundance [1]: 0.000%
- Cytophagaceae change in percent relative abundance [1]: −0.001%
- Deferribacteraceae change in percent relative abundance [1]: −0.085%
- Defluviitaleaceae change in percent relative abundance [1]: −0.001%
- Desulfobacteraceae change in percent relative abundance [1]: 0.000%
- Enterobacteriaceae change in percent relative abundance [1]: −1.496%
- Erysipelotrichaceae change in percent relative abundance [1]: −2.932%
- Eubacteriaceae change in percent relative abundance [1]: 4.510%
- Fabaceae change in percent relative abundance [1]: 0.001%
- Flavobacteriaceae change in percent relative abundance [1]: 0.000%
- Francisellaceae change in percent relative abundance [1]: −0.001%
- Fusobacteriaceae change in percent relative abundance [1]: 0.000%
- Gammaproteobacteria change in percent relative abundance [1]: −0.027%
- Gloeobacteraceae change in percent relative abundance [1]: −0.013%
- Gracilibacteraceae change in percent relative abundance [1]: −0.105%
- Halomonadaceae change in percent relative abundance [1]: 0.001%
- Hylidae change in percent relative abundance [1]: 0.002%
- Kopriimonadaceae change in percent relative abundance [1]: 0.000%
- Lachnospiraceae change in percent relative abundance [1]: −5.482%
- Lactobacillaceae change in percent relative abundance [1]: −15.023%
- Leuconostocaceae change in percent relative abundance [1]: 0.002%
- Methylobacteriaceae change in percent relative abundance [1]: 0.000%
- Microbacteriaceae change in percent relative abundance [1]: 0.000%
- Mucoraceae change in percent relative abundance [1]: 0.002%
- Nostocaceae change in percent relative abundance [1]: 0.001%
- Onagraceae change in percent relative abundance [1]: 0.000%
- Oscillatoriales change in percent relative abundance [1]: 0.069%
- Oscillospiraceae change in percent relative abundance [1]: −0.005%
- Paenibacillaceae change in percent relative abundance [1]: −0.001%
- Pasteurellaceae change in percent relative abundance [1]: 0.000%
- Pelobacteraceae change in percent relative abundance [1]: 0.000%
- Peptococcaceae change in percent relative abundance [1]: −0.948%
- Peptoniphilaceae change in percent relative abundance [1]: 0.000%
- Peptostreptococcaceae change in percent relative abundance [1]: −0.187%
- Physalacriaceae change in percent relative abundance [1]: 0.000%
- Poaceae change in percent relative abundance [1]: 0.107%
- Polyangiaceae change in percent relative abundance [1]: 0.000%
- Porphyromonadaceae change in percent relative abundance [1]: −19.192%
- Prevotellaceae change in percent relative abundance [1]: −0.240%
- Pseudomonadaceae change in percent relative abundance [1]: 0.000%
- Rhizobiaceae change in percent relative abundance [1]: 0.001%
- Rhodobacteraceae change in percent relative abundance [1]: 0.000%
- Rikenellaceae change in percent relative abundance [1]: −6.166%
- Ruminococcaceae change in percent relative abundance [1]: −1.440%
- Sphingomonadaceae change in percent relative abundance [1]: 0.000%
- Spirochaetaceae change in percent relative abundance [1]: −0.056%
- Spiroplasmataceae change in percent relative abundance [1]: −0.004%
- Staphylococcaceae change in percent relative abundance [1]: 0.000%
- Streptococcaceae change in percent relative abundance [1]: −2.376%
- Thermoanaerobacteraceae change in percent relative abundance [1]: −0.028%
- Veillonellaceae change in percent relative abundance [1]: 0.001%
- Verrucomicrobiaceae change in percent relative abundance [1]: −0.009%
- Xanthomonadaceae change in percent relative abundance [1]: 0.002%
- all other commensal taxa such as Bacteroidaceae and Lactobacillaceae [1]: depleted
- mice with Enterococcaceae blooms [1]: 4/5
- Enterococcaceae change in percent relative abundance [1]: 75.807%
- Enterococcaceae change in percent relative abundance (oral 100 mg/kg every 12 hours for 5 days, listed as amoxicillin): 75.8%
